Assay results reported in the supplement of paper PMC8612539.

System: Pasteurella multocida
Test: minimum inhibitory concentration (MIC)
Experimental: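 Broth microdilution MIC (Sensititre BOPO7F bovine plate, CLSI methods) of 19 antimicrobials against field isolates of P. multocida, M. haemolytica, H. somni (deep nasopharyngeal swabs) and E. coli, Enterococcus spp. (rectal swabs) from weaned dairy heifers. Incubation 16-24 h at 35 C. MIC is the lowest concentration preventing visible growth. Values with <= or > lie at the tested range limits. Trimethoprim-sulfamethoxazole is given as the trimethoprim component of a 1:19 mixture.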

COc1cc(Cc2cnc(N)nc2N)cc(OC)c1OC.Cc1cc(NS(=O)(=O)c2ccc(N)cc2)no1 [trimethoprim-sulfamethoxazole]
Details	minimum inhibitory concentration [µg/mL]
isolate (source animal id): 10	≤ 2
isolate (source animal id): 11	≤ 2
isolate (source animal id): 12	≤ 2
isolate (source animal id): 19	≤ 2
isolate (source animal id): 23	≤ 2
isolate (source animal id): 26	≤ 2
isolate (source animal id): 30	≤ 2
isolate (source animal id): 34	≤ 2
isolate (source animal id): 36	≤ 2
isolate (source animal id): 37	≤ 2
isolate (source animal id): 46	≤ 2
isolate (source animal id): 48	≤ 2
isolate (source animal id): 49	≤ 2
isolate (source animal id): 54	≤ 2
isolate (source animal id): 55	≤ 2
isolate (source animal id): 58	≤ 2
isolate (source animal id): 60	≤ 2
isolate (source animal id): 61	≤ 2
isolate (source animal id): 63	≤ 2
isolate (source animal id): 64	≤ 2
isolate (source animal id): 65	≤ 2
isolate (source animal id): 66	≤ 2
isolate (source animal id): 67	≤ 2
isolate (source animal id): 69	≤ 2
isolate (source animal id): 73	≤ 2
isolate (source animal id): 75	≤ 2
isolate (source animal id): 76	≤ 2
isolate (source animal id): 77	≤ 2
isolate (source animal id): 78	≤ 2
isolate (source animal id): 80	≤ 2
isolate (source animal id): 82	≤ 2
isolate (source animal id): 83	≤ 2
isolate (source animal id): 88	> 2
isolate (source animal id): 92	≤ 2
isolate (source animal id): 94	≤ 2
isolate (source animal id): 98	≤ 2
isolate (source animal id): 104	≤ 2
isolate (source animal id): 115	> 2
isolate (source animal id): 117	≤ 2
isolate (source animal id): 118	≤ 2
isolate (source animal id): 121	> 2
isolate (source animal id): 124	≤ 2
isolate (source animal id): 125	≤ 2
isolate (source animal id): 128	> 2
isolate (source animal id): 131	≤ 2
isolate (source animal id): 135	> 2
isolate (source animal id): 136	> 2
isolate (source animal id): 140	≤ 2
isolate (source animal id): 144	≤ 2
isolate (source animal id): 146	≤ 2
isolate (source animal id): 150	> 2
isolate (source animal id): 151	> 2
isolate (source animal id): 153	≤ 2
isolate (source animal id): 155	≤ 2
isolate (source animal id): 157	≤ 2
isolate (source animal id): 160	> 2
isolate (source animal id): 164	> 2
isolate (source animal id): 165	> 2
isolate (source animal id): 167	≤ 2
isolate (source animal id): 168	≤ 2
isolate (source animal id): 169	≤ 2
isolate (source animal id): 170	≤ 2
isolate (source animal id): 171	≤ 2
isolate (source animal id): 172	≤ 2
isolate (source animal id): 173	≤ 2
isolate (source animal id): 174	≤ 2
isolate (source animal id): 175	≤ 2
isolate (source animal id): 176	≤ 2
isolate (source animal id): 177	≤ 2
isolate (source animal id): 178	≤ 2
isolate (source animal id): 179	≤ 2
isolate (source animal id): 182	≤ 2
isolate (source animal id): 192	≤ 2
isolate (source animal id): 193	≤ 2
isolate (source animal id): 195	≤ 2
isolate (source animal id): 196	≤ 2
isolate (source animal id): 197	≤ 2
isolate (source animal id): 198	≤ 2
isolate (source animal id): 199	≤ 2
isolate (source animal id): 200	≤ 2
isolate (source animal id): 201	≤ 2
isolate (source animal id): 203	≤ 2
isolate (source animal id): 204	≤ 2
isolate (source animal id): 205	≤ 2
isolate (source animal id): 206	≤ 2
isolate (source animal id): 207	≤ 2
isolate (source animal id): 208	≤ 2
isolate (source animal id): 209	≤ 2
isolate (source animal id): 210	≤ 2
isolate (source animal id): 213	≤ 2
isolate (source animal id): 216	≤ 2
isolate (source animal id): 223	≤ 2
isolate (source animal id): 227	≤ 2
isolate (source animal id): 229	≤ 2
isolate (source animal id): 233	≤ 2
isolate (source animal id): 234	≤ 2
isolate (source animal id): 237	≤ 2
isolate (source animal id): 241	≤ 2
isolate (source animal id): 245	≤ 2
isolate (source animal id): 247	≤ 2
isolate (source animal id): 250	≤ 2
isolate (source animal id): 254	≤ 2
isolate (source animal id): 255	≤ 2
isolate (source animal id): 258	≤ 2
isolate (source animal id): 261	≤ 2
isolate (source animal id): 262	≤ 2
isolate (source animal id): 269	≤ 2
isolate (source animal id): 270	≤ 2
isolate (source animal id): 274	≤ 2
isolate (source animal id): 275	≤ 2
isolate (source animal id): 276	≤ 2
isolate (source animal id): 277	≤ 2
isolate (source animal id): 278	≤ 2
isolate (source animal id): 279	≤ 2
isolate (source animal id): 280	> 2
isolate (source animal id): 284	≤ 2
isolate (source animal id): 285	≤ 2
isolate (source animal id): 287	≤ 2
isolate (source animal id): 290	≤ 2
isolate (source animal id): 294	≤ 2
isolate (source animal id): 295	≤ 2
isolate (source animal id): 296	≤ 2
isolate (source animal id): 307	≤ 2
isolate (source animal id): 310	≤ 2
isolate (source animal id): 311	≤ 2
isolate (source animal id): 312	≤ 2
isolate (source animal id): 313	≤ 2
isolate (source animal id): 315	≤ 2
isolate (source animal id): 316	≤ 2
isolate (source animal id): 318	≤ 2
isolate (source animal id): 319	≤ 2
isolate (source animal id): 320	≤ 2
isolate (source animal id): 321	≤ 2
isolate (source animal id): 322	≤ 2
isolate (source animal id): 324	≤ 2
isolate (source animal id): 325	≤ 2
isolate (source animal id): 328	≤ 2
isolate (source animal id): 330	≤ 2
isolate (source animal id): 331	≤ 2
isolate (source animal id): 333	≤ 2
isolate (source animal id): 336	≤ 2
isolate (source animal id): 337	≤ 2
isolate (source animal id): 339	≤ 2
isolate (source animal id): 340	≤ 2
isolate (source animal id): 341	≤ 2
